Test results taken from a compilation of properties of binary mixtures (doi:10.1016/j.molliq.2022.118933).

Experiment: xn = mol fraction of the nth substance listed
Settings: 100 kPa

CCCC[N+](C)(C)C[c-]1cccc1.O=S(=O)([N-]S(=O)(=O)C(F)(F)F)C(F)(F)F.[Fe+2].c1cc[cH-]c1 + CC#N
Settings	electrical conductivity [S/m]
298 K, x1 = 0.01	1.35
298 K, x1 = 0.02	1.89
298 K, x1 = 0.05	2.2
298 K, x1 = 0.06	2.14
298 K, x1 = 0.07	2.07
298 K, x1 = 0.08	1.96
298 K, x1 = 0.1	1.8
298 K, x1 = 0.12	1.45
298 K, x1 = 0.15	1.17
298 K, x1 = 0.2	0.759
303 K, x1 = 0.01	1.41
303 K, x1 = 0.02	1.98
303 K, x1 = 0.03	2.28
303 K, x1 = 0.05	2.32
303 K, x1 = 0.06	2.28
303 K, x1 = 0.07	2.2
303 K, x1 = 0.08	2.07
303 K, x1 = 0.12	1.57
303 K, x1 = 0.15	1.24
303 K, x1 = 0.2	0.843
308 K, x1 = 0.01	1.47
308 K, x1 = 0.02	2.06
308 K, x1 = 0.03	2.39
308 K, x1 = 0.05	2.45
308 K, x1 = 0.06	2.41
308 K, x1 = 0.07	2.33
308 K, x1 = 0.1	2.01
308 K, x1 = 0.12	1.7
308 K, x1 = 0.15	1.36
313 K, x1 = 0.01	1.53
313 K, x1 = 0.02	2.15
313 K, x1 = 0.03	2.5
313 K, x1 = 0.05	2.57
313 K, x1 = 0.06	2.54
313 K, x1 = 0.08	2.34
313 K, x1 = 0.1	2.14
313 K, x1 = 0.12	1.81
313 K, x1 = 0.15	1.46
313 K, x1 = 0.2	1.04
318 K, x1 = 0.02	2.23
318 K, x1 = 0.03	2.6
318 K, x1 = 0.05	2.7
318 K, x1 = 0.07	2.61
318 K, x1 = 0.1	2.28
318 K, x1 = 0.12	1.94
323 K, x1 = 0.02	2.33
323 K, x1 = 0.03	2.71
323 K, x1 = 0.05	2.82
323 K, x1 = 0.06	2.8
323 K, x1 = 0.07	2.74
323 K, x1 = 0.08	2.6
323 K, x1 = 0.1	2.41
323 K, x1 = 0.12	2.07
323 K, x1 = 0.15	1.69
328 K, x1 = 0.01	1.69
328 K, x1 = 0.02	2.42
328 K, x1 = 0.03	2.82
328 K, x1 = 0.06	2.93
328 K, x1 = 0.07	2.87
328 K, x1 = 0.08	2.74
328 K, x1 = 0.1	2.55
328 K, x1 = 0.15	1.82
328 K, x1 = 0.2	1.34
333 K, x1 = 0.05	3.08
333 K, x1 = 0.06	3.06
333 K, x1 = 0.08	2.88
333 K, x1 = 0.1	2.69
333 K, x1 = 0.12	2.32
333 K, x1 = 0.15	1.94
333 K, x1 = 0.2	1.46
338 K, x1 = 0.01	1.8
338 K, x1 = 0.02	2.59
338 K, x1 = 0.03	3.03
338 K, x1 = 0.06	3.21
338 K, x1 = 0.08	3.02
338 K, x1 = 0.1	2.83
338 K, x1 = 0.12	2.46
338 K, x1 = 0.15	2.06
338 K, x1 = 0.2	1.57
343 K, x1 = 0.01	1.86
343 K, x1 = 0.02	2.67
343 K, x1 = 0.03	3.14
343 K, x1 = 0.05	3.33
343 K, x1 = 0.06	3.34
343 K, x1 = 0.1	2.96
343 K, x1 = 0.12	2.6
343 K, x1 = 0.2	1.7
348 K, x1 = 0.01	1.91
348 K, x1 = 0.03	3.24
348 K, x1 = 0.05	3.45
348 K, x1 = 0.06	3.46
348 K, x1 = 0.1	3.11
348 K, x1 = 0.15	2.32
348 K, x1 = 0.2	1.81
